Reference: ChEMBL document CHEMBL1201862, “PubChem BioAssay data set” (2004)
Activity calls are given as the source filed them. Rule as the data show it: actives have a measured IC50 and inactives only a lower limit.

Target: Envelope glycoprotein gp160 (Human immunodeficiency virus 1, UniProt Q6QLK5)
Assay: inhibitors of HIV fusion peptide binding, primary screen, biochemical, uHTS, fluorescence dequenching (AID 1986)

Envelope glycoprotein gp160, sequence (Q6QLK5 whole entry, the tested form may be a part): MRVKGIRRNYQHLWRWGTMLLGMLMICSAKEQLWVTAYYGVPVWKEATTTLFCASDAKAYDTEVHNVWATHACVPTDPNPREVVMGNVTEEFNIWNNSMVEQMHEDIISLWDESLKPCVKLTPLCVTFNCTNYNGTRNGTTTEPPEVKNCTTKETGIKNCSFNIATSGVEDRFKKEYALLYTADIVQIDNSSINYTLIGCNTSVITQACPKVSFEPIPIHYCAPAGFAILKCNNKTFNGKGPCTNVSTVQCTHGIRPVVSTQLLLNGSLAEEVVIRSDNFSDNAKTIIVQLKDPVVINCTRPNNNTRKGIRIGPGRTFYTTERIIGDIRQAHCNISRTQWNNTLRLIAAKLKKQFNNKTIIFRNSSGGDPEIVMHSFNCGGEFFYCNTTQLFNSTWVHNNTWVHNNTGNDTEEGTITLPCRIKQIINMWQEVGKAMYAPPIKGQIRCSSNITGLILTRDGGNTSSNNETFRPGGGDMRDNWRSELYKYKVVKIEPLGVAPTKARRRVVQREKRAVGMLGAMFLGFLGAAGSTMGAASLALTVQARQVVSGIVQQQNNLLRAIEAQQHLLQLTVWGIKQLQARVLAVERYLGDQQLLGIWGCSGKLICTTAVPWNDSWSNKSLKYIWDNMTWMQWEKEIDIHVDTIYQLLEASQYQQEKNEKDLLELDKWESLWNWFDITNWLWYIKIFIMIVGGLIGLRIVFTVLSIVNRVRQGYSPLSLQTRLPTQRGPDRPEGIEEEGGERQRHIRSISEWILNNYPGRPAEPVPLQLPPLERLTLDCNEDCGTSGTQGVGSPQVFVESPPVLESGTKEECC

**Q.** COc1cc([N+](=O)[O-])cc(/C=C2/SC(=S)N(Cc3ccccc3)C2=O)c1O was tested. Which IC50 did it give?
**A.** 32.6 µM (active)

**Q.** For CC(=O)Nc1sc(/C(C#N)=C/c2ccc(Cl)c(Cl)c2)nc1-c1ccc(C)cc1, which IC50 is on record?
**A.** 2.04 µM (active)

**Q.** For O=C(O)c1ccc(N2C(=O)/C(=C/c3ccc(-c4ccc([N+](=O)[O-])cc4)o3)C=C2c2ccccc2)cc1, which IC50 is on record?
**A.** 9.9 µM (active)

**Q.** For CCOC(=O)C1=C(C)N=c2s/c(=C\c3ccc(OCC(=O)O)cc3)c(=O)n2C1c1ccc(Cl)cc1 (centres undefined), which IC50 is on record?
**A.** 13.8 µM (active)
